Publication PMC7016953 (Cells, 2020)

Assays:
TRPC3 [1] = molecular target: T1, TRPC3 (Homo sapiens, UniProt Q13507); experiment: Fluo-4 Ca2+ influx assay in HEK TRPC3-YFP cell suspensions; format: cell-based
T1 construct: expressed in transfected cells
T1 sequence (Q13507 1-848 isoform Q13507-3): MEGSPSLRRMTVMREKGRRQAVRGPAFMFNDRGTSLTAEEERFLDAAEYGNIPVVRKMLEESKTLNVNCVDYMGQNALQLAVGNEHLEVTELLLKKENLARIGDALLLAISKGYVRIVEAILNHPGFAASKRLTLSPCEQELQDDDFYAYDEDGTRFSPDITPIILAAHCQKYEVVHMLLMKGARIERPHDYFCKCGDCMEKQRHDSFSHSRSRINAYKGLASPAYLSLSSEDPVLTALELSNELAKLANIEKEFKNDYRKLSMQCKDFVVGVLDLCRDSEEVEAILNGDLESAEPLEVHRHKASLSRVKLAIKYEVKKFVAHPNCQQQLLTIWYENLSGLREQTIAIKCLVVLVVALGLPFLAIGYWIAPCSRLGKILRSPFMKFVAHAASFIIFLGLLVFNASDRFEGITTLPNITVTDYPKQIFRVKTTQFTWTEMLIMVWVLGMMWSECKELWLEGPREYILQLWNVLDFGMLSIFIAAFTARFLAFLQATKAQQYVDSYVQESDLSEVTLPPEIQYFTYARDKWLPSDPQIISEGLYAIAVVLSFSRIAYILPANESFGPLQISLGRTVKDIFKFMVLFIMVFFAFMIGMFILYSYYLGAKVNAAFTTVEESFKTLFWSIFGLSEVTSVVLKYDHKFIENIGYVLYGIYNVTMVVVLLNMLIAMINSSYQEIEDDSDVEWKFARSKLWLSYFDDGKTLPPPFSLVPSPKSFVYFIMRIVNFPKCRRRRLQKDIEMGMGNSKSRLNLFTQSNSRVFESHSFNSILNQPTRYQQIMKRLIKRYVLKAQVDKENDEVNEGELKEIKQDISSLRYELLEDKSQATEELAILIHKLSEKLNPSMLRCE

TRPC3 [2] = test system: T2, TRPC3; experiment: Microfluorometric single-cell [Ca2+]i analysis, fura-2-loaded HEK cells stably expressing TRPC3; format: cell-based, human; details: 100 µM OAG applied sequentially; also in HEK cells expressing mouse TRPC3
T2 construct: expressed in transfected cells
Experimental: (§1) The microfluorometric single-cell [Ca^2+]i analysis was performed on an inverted epifluorescence microscope (Carl Zeiss, Jena, Germany) and calibrated as described. Cells were grown on 25 mm coverslips and loaded with 4 µM fura-2/AM (AAT Bioquest, Sunnyvale, CA, U.S.A.) in HBS containing 0.2% BSA for 30 min at 37 °C. After gently rinsing the coverslips with HBS, coverslips were mounted in a bath chamber and superfused with HBS containing 0.035% BSA.
Figure 2 Microfluorometric single-cell analysis of artemisinin-induced increases in [Ca^2+]i in fura-2-loaded HEK cells stably expressing TRPC3 (A), TRPC6 (B), or TRPC7 (C). […] Experiments were performed either in standard bath solution, containing 1 mM Ca^2+ (black lines and bars), or in a nominally Ca^2+-free HBS buffer, supplemented with 200 µM EGTA (grey lines and bars). Time courses of averaged responses (left), and statistical analysis of 6–11 independent imaging experiments with means and S.D. (right) are shown. Significant differences (p < 0.05, Student´s t-test with paired data: #, with unpaired data: *) are marked for the indicated comparisons; n.s.: difference is statistically not significant.

TRPC6 = test system: T3, TRPC6; experiment: Whole-cell patch-clamp recordings in HEK TRPC6-YFP cells; format: cell-based, human; details: 50 µM OAG, subsequent exposure
T3 construct: expressed in transfected cells
Experimental: (§2) The recordings of TRPC3, TRPC6, or TRPC7 membrane currents in HEK293 or PC12 cells were realized by using a Multiclamp 700B amplifier with a Digidata 1440A digitizer controlled by the PClamp 10 software (all Molecular Devices, Sunnyvale, CA, U.S.A.). Recordings were obtained at room temperature either in the whole-cell or in an outside-out configuration as indicated. Cells were seeded as described above, but at lower density, mounted in a chamber (Warner Instruments, Hamden, CT; U.S.A.), placed onto the stage of an inverted microscope, and perfused with required solution. The standard extracellular solution contained 140 mM NaCl, 5 mM CsCl, 2 mM MgCl2, 1 mM CaCl2, 10 mM HEPES, and 0.035% BSA adjusted to pH 7.4 with NaOH. The composition of standard intracellular solution was 140 mM CsCl, 1 mM MgCl2, 5 mM EGTA, and 10 mM HEPES adjusted to pH 7.25 with CsOH; the osmolarity was 295 mOsm l^−1. In outside-out measurements, the pipette solution contained 5 mM EGTA and 1.1 mM CaCl2 to achieve a calculated free Ca^2+ concentration of 100 nM.
(§3) Patch pipettes were pulled from borosilicate glass capillaries BG150F-8P (Science Products, Hofheim, Germany) with a PIP6 pipette puller (HEKA Elektronik, Lambrecht, Germany). […] In all whole-cell measurements, the series resistance was lower than 13 MΩ, and compensated by 70%. […]

TRPC7 = test system: T4, TRPC7; experiment: Whole-cell patch-clamp recordings in HEK TRPC7-YFP cells; format: cell-based, human; details: 50 µM OAG, subsequent exposure
T4 construct: expressed in transfected cells
Experimental: as §2, §3

[3] = test system: PC12 cells (native TRPC3 channel complexes); experiment: [Ca2+]i analysis in fura-2-loaded PC12 cells; format: cell-based, rat; details: artemisinin 50 or 100 µM; 6–12 experiments for each compound
Experimental: Human embryonic kidney 293 (HEK293) cells were stably transfected with expression plasmids that encode hTRPC3-YFP, hTRPC6-YFP, hTRPC7-YFP, mTRPC4ß-YFP, rTRPV1-CFP, rTRPV2-YFP, rTRPV3-YFP, mTRPV4-YFP, or hTRPM2 as previously described. Cell lines were cultured in Earle’s minimum essential medium (MEM; Sigma, Munich, Germany), supplemented with 10% fetal calf serum (Gibco Thermo Fisher Scientific, Darmstadt, Germany), 2 mM L-glutamine, and required concentrations of geneticin in a range of 0.4–1 mg/mL. A HEK293mTRPC5-YFP cell line was maintained and induced as described before. The HEK293mTRPM3α2 cells (expressing the Ca^2+-permeable main variant of mouse TRPM3) were kindly provided by Johannes Oberwinkler (Marburg, Germany), the HEK293hTRPA1 cells that constitutively overexpress the human TRPA1 were from Dr. Natalie Tigue and Dr. Steve Moore (GlaxoSmithKline, Harlow, UK). With the exception of mTRPC5-YFP, all cell lines constitutively overexpress the respective TRP channel under the control of a cytomegalovirus (CMV) promoter. A HEK cell line stably expressing the human protein kinase C (PKC) ε C-terminally tagged with YFP [13] was generated and maintained in the same medium as HEKTRPC3-YFP cells. PC12 cells were cultured in RPMI-1640 (Sigma, Munich, Germany) with 10% fetal calf serum, 2 mM L-glutamine, 100 U/mL penicillin, and 0.1 mg/mL streptomycin. For electrophysiological and single cell [Ca^2+]i imaging experiments, PC12 cells were plated onto 25 mm poly-L-lysine-coated glass coverslips and measured 24–48 h after seeding. All cells were maintained at 37 °C in a 5% CO2-aerated, humidified atmosphere.
as §1
Figure 7 Expression of TRPC3 and functional responses to TRPC activators in PC12 rat pheochromocytoma cells. (A) Immunofluorescence analysis of TRPC3 (green channel) and tyrosine hydroxylase (TH; red channel) expression in PC12 cells. Nuclei were counterstained with DAPI (blue channel). Bars: 20 µm scale. Time course of the [Ca^2+]i (B) and averaged basal and peak [Ca^2+]i values (C) were recorded by microfluorometric analysis in fura-2-loaded PC12 cells grown on glass coverslips. […] Data represent averages (B) or means and S.D. (C) of 6–12 imaging experiments for each compound. Significant increases compared to the respective basal values are indicated (#: p < 0.05; Student´s t-test for paired data).

hTRPC6-YFP = test system: T5, hTRPC6-YFP; experiment: Fluo-4 Ca2+ influx assay in HEK293 cells stably expressing TRPC6; format: cell-based, human
T5 construct: expressed in transfected cells

hTRPC7-YFP = test system: T6, hTRPC7-YFP; experiment: Fluo-4 Ca2+ influx assay in HEK293 cells stably expressing TRPC7; format: cell-based, human; details: fluo-4 concentration response analysis
T6 construct: expressed in transfected cells

[4] = test system: T7, heteromeric TRPC3:TRPC6 channel complexes; experiment: Fluo-4 Ca2+ influx assay in HEK293 cells co-expressing TRPC3 and TRPC6; format: cell-based; details: fluo-4 concentration response analysis
T7 construct: expressed in transfected cells; host or cells: HEK293, stably co-transfected
Experimental: (§4) All fluorometric Ca^2+ assays were done in (4-(2-hydroxyethyl)-1-piperazineethanesulfonic acid) (HEPES)-buffered saline (HBS), containing 132 mM NaCl, 6 mM KCl, 1 mM MgCl2, 1 mM CaCl2, 5.5 mM D-glucose, 10 mM HEPES, and 0.035% bovine serum albumin (BSA) adjusted to pH 7.4 with NaOH. For measurements in Ca^2+-free bath solutions, a modified HBS without CaCl2 was supplemented with 200 µM ethylene glycol-bis(β-aminoethyl ether)-N,N,N′,N′-tetraacetic acid (EGTA).
(§5) The primary compound screen and the generation of concentration response curves in HEK293 cells or in PC12 cells were performed by using a custom-made fluorescence plate imager built into a robotic liquid handling station equipped with a 96-tip multichannel head (Freedom Evo 150, Tecan, Männedorf, Switzerland) as described previously. To this end, trypsinized cell suspensions were loaded with 4 µM fluo-4/AM (Invitrogen, Thermo Fisher Scientific, Waltham, MA, U.S.A.) in cell culture medium for 30 min at 37 °C. After brief centrifugation, cells were resuspended in HBS and dispensed into black pigmented, clear-bottom 384-well plates (Greiner µClear, Frickenhausen, Germany). Plates were mounted on the imager, and fluorescence signals were recorded with a cooled Zyla 5.5 camera (Andor, Belfast, UK) through a 515 nm long pass filter. The image acquisition was controlled by the µManager software (http://micro-manager.org), and excitation with a LED array (470 nm) was synchronized by the camera trigger output. After baseline recording for about 60 s, the compound libraries or serial dilutions of activators or inhibitors were added to the cells by the liquid handling device. When inhibitory potencies were evaluated, a second pipetting step with the respective reference agonist was performed. Fluorescence intensities were calculated from image stacks for each well with ImageJ (National Institutes of Health, Bethesda, MD, U.S.A.), corrected for background signals, and normalized to the initial intensities (F/F0). […]

parental HEK293 cells = experiment: [Ca2+]i response in un-transfected parental HEK293 cells; format: cell-based, human; details: concentrations up to 50 µM
Experimental: as §4, §5

CCCCCCCC/C=C\CCCCCCCC(=O)OC[C@H](CO)OC(C)=O [OAG, 1-oleoyl-2-acetyl-sn-glycerol]
EC50 of OAG in the presence of artemisinin (TRPC3 [1]; 30 or 100 µM artemisinin co-applied): shifted to lower concentrations
further increase in [Ca2+]i after challenge with maximally effective artemisinin (TRPC3 [2]): failed to induce a further increase in [Ca^2+]i
current densities in TRPC6-expressing HEK cells (TRPC6): caused increases in current densities
current densities in TRPC7-expressing HEK cells (TRPC7): caused increases in current densities
[Ca2+]i in fura 2-loaded PC12 cells [3]: significant increases in [Ca^2+]i

C[C@H]1[C@@H](O)O[C@@H]2O[C@@]3(C)CC[C@H]4[C@H](C)CC[C@@H]1[C@@]24OO3 [artenimol]
fluorescence signal of the Ca2+ indicator in primary screen (TRPC3 [1]; 20 µM, acute addition): immediate and transient increase in the fluorescence signal
TRPC3 activation in concentration response analysis (TRPC3 [1]; fluo-4, up to 200 µM, compared with solvent (DMSO)): did not reach saturation
effect on TRPC6 (hTRPC6-YFP; fluo-4 concentration response analysis): marked preference to activate TRPC3, but not the closely related TRPC6 channel
signal in counterscreen with TRPC6-expressing cells (hTRPC6-YFP; primary screen, 20 µM): no signals
effect on TRPC7 (hTRPC7-YFP): remained largely unaffected
response of cells stably transfected with both TRPC3 and TRPC6 [4]: in a very similar fashion as HEKTRPC3-YFP cells
response of un-transfected parental HEK293 cells (parental HEK293 cells): no response
